From patent publication US6130250A, “Veterinary use of a pleuromutilin derivative” (priority 1996, dated 2000)
In brackets after ≈: the same amount, converted by molar mass. Like-named read-outs stand apart in the source and are kept apart here.

What was measured:
[1] = hen; cited from earlier work
coccidia = details: fowl; cited from earlier work
[2] = pig; cited from earlier work
Mycoplasma hyosynoviae = assay: MIC assay, 7 field isolates of Mycoplasma hyosynoviae; assay type: cell-based; details: Mycoplasma; 7 field isolates
Description: Tissue samples are obtained from the lungs of pigs from various enzootic pneumonia of pigs (EPP)--affected herds. Samples are shipped on dry ice for culture. Four isolates from lung samples initially isolated for recovery of Mycoplasma hyopneumoniae were reisolated for Mycoplasma hyosynoviae after it had been noted from the lung samples submitted (re-stored at -70° C.), during culture for M. hyopneumoniae, that some samples yielded luxuriant growth of colonies having the typical morphology of Mycoplasma hyosynoviae. Three further isolates were recovered from other lung samples provided. All isolates were serologically identified by disc growth inhibition with specific rabbit antiserum raised against Mycoplasma hyosynoviae. A commerically available solid medium (Mycoplasma Experience Ltd.) is used to isolate M. hyosynoviae from lung tissue. A liquid medium (Mycoplasma Experience Ltd.) containing phenol red and arginine (pH 7.0) is used for the MIC assay.
(§1) Stock solutions of test compound are prepared at 1 mg/ml concentration in deionised water, sterilised by filtration through 0.2μ pore size membrane filters (Sartorius Minisart, N) and stored at -20° C. For use in the MIC tests the stock solutions are diluted in liquid medium to double the final concentrations required. MIC tests are carried out according to the method of Tanner and Wu, Avian Diseases 36 (1992) 714-717. Actively growing challenge cultures are prepared either from 1 ml aliquots of broth cultures stored at -70° C. or from cultures stored on agar at -70° C. The challenge cultures are diluted to give a target titre of 10^3 to 10^5 colour changing units/ml. 0.1 ml aliquots of challenge inocula are mixed with 0.1 ml aliquots of antibiotic dilution in microtitre wells. Each microtitre plate contains uninoculated media at pH 7.6 (end point control) and antibiotic-free inoculated challenge controls. All plates are sealed with adhesive film and incubated aerobically at 36° C. MICs are recorded when the colour change in the challenge control wells matches the pH of the end point control. The MIC is the lowest concentration showing no colour change.

M. hyopneumoniae = assay: MIC, microtitre broth, ten field isolates and type strain J of M. hyopneumoniae; assay type: cell-based, Mycoplasma hyopneumoniae
Excerpt: Tissue samples are obtained from the lungs of pigs from various enzootic pneumonia of pigs (EPP)-affected herds. Samples are shipped on dry ice for culture. M. hyopneumoniae is recovered from freshly sectioned lung tissue by direct culture onto Mycoplasma Experience agar. This technique allows the distinctive colonies of M. hyopneumoniae to be recognised and readily separated, by cloning from other faster growing mycoplasma species such as Mycoplasma hyorhinis, often present in EPP lung samples. Isolates are subcultured and identified by disc growth inhibition using specific rabbit antiserum raised to M. hyopneumoniae NCTC 10110.
Cultures for antibiotic challenge are prepared in Mycoplasma Experience broth, incubated aerobically at 36° C.
A commercially available solid medium (Mycoplasma Experience Ltd.) is used to isolate M. hyopneumoniae from lung tissue. A liquid medium (Mycoplasma Experience Ltd.) containing phenol red and glucose (pH 7.6) is used for the MIC assays.
as §1, with “Tanner &” for “Tanner and”, “pH 6.8 (M. hyopneumoniae)” for “pH 7.6”, “wells match” for “wells matches”

[3] = Mesomycoplasma hyopneumoniae, field strains (n = 10)

Row | SMILES | dosage showing growth-promoting activity [1] | dosage showing activity against coccidia (coccidia) | dosage showing growth-promoting activity [2] | MIC (Mycoplasma hyosynoviae) | MIC (M. hyopneumoniae; Mesomycoplasma hyopneumoniae, NCTC10110, Type Strain J (NCTC 10110), read-out: MIC) | MIC50 (M. hyopneumoniae; [3]) | MIC90 (M. hyopneumoniae; [3]) | MIC (M. hyopneumoniae; Mesomycoplasma hyopneumoniae, field strains (n = 10), read-out: MIC range) | susceptibility of field isolates (M. hyopneumoniae; field isolates)
1 | C=C[C@]1(C)C[C@@H](OC(=O)CSC(C)(C)CNC(=O)[C@H](N)C(C)C)[C@]2(C)[C@H](C)CC[C@]3(CCC(=O)[C@H]32)[C@@H](C)[C@@H]1O [compound of formula I, 14-O-[1-[(R)-2-amino-3-methylbutyrylamino]-2-methylpropan-2-ylthioacetyl]mutilin] | 10-50 mg/kg of feed | 20-150 mg/kg of feed | 10-50 mg/kg of feed | – | – | – | – | – | –
2 | CCN1CCN(c2cc3c(cc2F)c(=O)c(C(=O)O)cn3C2CC2)CC1 [enrofloxacin] | – | – | – | 0.025 to 0.25 µg/mL (≈ 0.0696 to 0.696 µM) | 0.025 µg/mL (≈ 0.0696 µM) | 0.005 µg/mL (≈ 0.0139 µM) | 0.01 µg/mL (≈ 0.0278 µM) | 0.0025 to 0.025 µg/mL (≈ 0.00696 to 0.0696 µM) | very good sensitivity
